In patent publication US20240050429A1, “PAZOPANIB PHARMACEUTICAL COMPOSITION, INJECTION AND PREPARATION METHOD AND USE THEREOF” (Qx Therapeutics, Inc., priority 2022, published 2024):
Counter-ions that a name gives are not always drawn.

System: hydrochloric acid-induced acute lung injury in mice
Test: Hydrochloric acid-induced acute lung injury, lung permeability, tail intravenous injection of Example 2
Format: in vivo
Set-up: dose or concentration left out as unconfirmed
Method: 1. In this example, […], respectively, which corresponded to the freshly prepared pharmaceutical compositions in Example 2 (being freshly formulated referred to within 1 day after the formulation was completed), and the therapeutic effect of these doses on hydrochloric acid-induced acute lung injury in mice were determined, wherein the body weight of each mouse was 20 g.
8 to 10 weeks old C57/BL male and female mice were infused with 0.05 M HCl at 2.5 μl/bwg through the trachea. 4 hours later, 100 μl of FITC-labeled albumin (10 mg/ml) was injected through the posterior segment of eyeball. Finally, the mice were euthanized and lung tissue samples were collected 6 hours after the induction of injury to measure changes in pulmonary permeability and lung histopathology. […] Meanwhile, plasma was collected and bronchoalveolar lavage was performed after mice were euthanized.

Q: How did the “Percentage (%) of reduced lung permeability” value turn out when `Cc1ccc(Nc2nccc(N(C)c3ccc4c(C)n(C)nc4c3)n2)cc1S(N)(=O)=O` [Comparative Example 1, pazopanib hydrochloride] was run?
A: 45 to 70%
